# Test results reported in US7582627B2, “3-aminoquinazolin-2,4-dione antibacterial agents” (Warner-Lambert Company, priority 2000, dated 2009).
# Structures can show the parent of a compound that is named as a salt. Where two headings read alike, the source gives them in different places.
# Tests used:
# E. coli = experiment: In vivo median protective dose, lethal systemic infection; settings: mice
# Method: (§1) The in vivo activity of invention compounds is evaluated according to the procedure of Miller et al., Proc. Soc. Exp. Biol. Med, 1944; 57:261. The median protective dose (PD50) is determined in mice given lethal systemic infections. Two 3-aminoquinazolin-2,4-diones of the invention are compared to a […], and the results are presented in Table 3. The results establish the unexpected superiority of the 3-amino invention compounds compared to similar 3-hydroxy analogs.
# E. coli B90 = experiment: Antibacterial assay, microtitration MIC; assay type: cell-based; settings: Escherichia coli
# Method: (§2) The compounds of the present invention are tested against an assortment of Gram negative and Gram positive organisms using standard microtitration techniques (Cohen et al., Antimicrob. Agents Chemother., 1985; 28:766; Heifetz et al., Antimicrob. Agents Chemother., 1974; 6:124). The results of the evaluation of representative 3-aminoquinazolin-2,4-diones of Formula I are shown in Table 2 and compared to two 3-hydroxyquinazolin-2,4-diones.
# E. coli MC4100 = experiment: Antibacterial assay, microtitration MIC; assay type: cell-based; settings: Escherichia coli
# Method: as §2
# E. coli Tol C = experiment: Antibacterial assay, microtitration MIC; assay type: cell-based; settings: Escherichia coli, read-out: Minimum Inhibitory Concentrations E. coli Tol C
# Method: as §2
# E. faecalis RB1 = experiment: Antibacterial assay, microtitration MIC; assay type: cell-based; settings: Enterococcus faecalis
# Method: as §2
# S. aureus 29213 = experiment: Antibacterial assay, microtitration MIC; assay type: cell-based
# Method: as §2
# S. pyogenes C203 = experiment: Antibacterial assay, microtitration MIC; assay type: cell-based; settings: Streptococcus pyogenes
# Method: as §2
# E. coli gyrase = target: T1, E. coli gyrase (Escherichia coli, UniProt P0AES4+P0AES6); experiment: DNA gyrase supercoiling inhibition assay; assay type: biochemical
# T1 construct: purchased Lucent, Ltd., Leicester, UK
# Method: The effects of invention compounds on the activity of DNA gyrase is determined in the supercoiling inhibition assay, following reaction conditions recommended by the enzyme supplier (Lucent, Ltd., Leicester, UK). Reactions are performed in buffer G (35 mM Tris-HCl (pH 7.5), 24 mM KCl, 4 mM MgCl2, 2 mM DTT, 1.8 mM spermidine, 1 mM ATP, 0.1 mg/mL bovine serum albumin). Relaxed plasmid pBR322 (0.25 μg, Lucent, Ltd., Leicester, UK) is reacted with 1 U E. coli gyrase (Lucent, Ltd., Leicester, UK), in the absence or presence of test compounds, for 30 minutes at 37° C. Reactions are stopped by the addition of SDS and proteinase K to respective final concentrations of 1% and 0.5 mg/mL. After an additional 30 minutes at 37° C., one-tenth volume of 10× loading buffer (0.3% bromophenol blue, 16% Ficoll, 10 mM Na2HPO4) is added, and reactions are loaded onto agarose gels and electrophoresed. The concentration of representative invention compounds of Formula I inhibiting 50% of the supercoiling activity of DNA gyrase is given as an IC50 and recorded in Table 2.
# S. pyogenes = experiment: In vivo median protective dose, lethal systemic infection; settings: mice
# Method: as §1
# E. coli JL4 = experiment: Cross resistance antibacterial assay, microtitration MIC; assay type: cell-based; settings: Escherichia coli, Tol C pump deficient strain with E. coli W3110 background, read-out: Minimum Inhibitory Concentrations E. coli JL4
# Method: (§3) The compounds of the present invention are tested against an assortment of ciprofloxacin resistant E. coli and S. aureus organisms described below using standard microtitration techniques (Cohen, et al., Antimicrob. Agents Chemother., 1985; 28:766; Heifetz, et al., Antimicrob. Agents Chemother., 1974; 6:124).
# E. coli LLM1 = experiment: as above; assay type: cell-based; settings: Escherichia coli, LLM1, read-out: Minimum Inhibitory Concentrations E. coli LLM1
# Method: as §3
# S. aureus 2552 = experiment: as above; assay type: cell-based; settings: Staphylococcus aureus, read-out: Minimum Inhibitory Concentrations S. aureus 2552
# Method: as §3
# S. aureus 2554 = experiment: as above; assay type: cell-based; settings: Staphylococcus aureus, 2554, read-out: Minimum Inhibitory Concentrations S. aureus 2554
# Method: as §3
# S. aureus 2558 = experiment: as above; assay type: cell-based; settings: Staphylococcus aureus, 2558, read-out: Minimum Inhibitory Concentrations S. aureus 2558
# Method: as §3
# S. aureus UC-76 = experiment: as above; assay type: cell-based; settings: Staphylococcus aureus, UC76; typical sensitive laboratory strain (wild type); read-out: Minimum Inhibitory Concentrations S. aureus UC-76
# Method: as §3
# T1 sequence (P0AES4 whole entry, one chain of several): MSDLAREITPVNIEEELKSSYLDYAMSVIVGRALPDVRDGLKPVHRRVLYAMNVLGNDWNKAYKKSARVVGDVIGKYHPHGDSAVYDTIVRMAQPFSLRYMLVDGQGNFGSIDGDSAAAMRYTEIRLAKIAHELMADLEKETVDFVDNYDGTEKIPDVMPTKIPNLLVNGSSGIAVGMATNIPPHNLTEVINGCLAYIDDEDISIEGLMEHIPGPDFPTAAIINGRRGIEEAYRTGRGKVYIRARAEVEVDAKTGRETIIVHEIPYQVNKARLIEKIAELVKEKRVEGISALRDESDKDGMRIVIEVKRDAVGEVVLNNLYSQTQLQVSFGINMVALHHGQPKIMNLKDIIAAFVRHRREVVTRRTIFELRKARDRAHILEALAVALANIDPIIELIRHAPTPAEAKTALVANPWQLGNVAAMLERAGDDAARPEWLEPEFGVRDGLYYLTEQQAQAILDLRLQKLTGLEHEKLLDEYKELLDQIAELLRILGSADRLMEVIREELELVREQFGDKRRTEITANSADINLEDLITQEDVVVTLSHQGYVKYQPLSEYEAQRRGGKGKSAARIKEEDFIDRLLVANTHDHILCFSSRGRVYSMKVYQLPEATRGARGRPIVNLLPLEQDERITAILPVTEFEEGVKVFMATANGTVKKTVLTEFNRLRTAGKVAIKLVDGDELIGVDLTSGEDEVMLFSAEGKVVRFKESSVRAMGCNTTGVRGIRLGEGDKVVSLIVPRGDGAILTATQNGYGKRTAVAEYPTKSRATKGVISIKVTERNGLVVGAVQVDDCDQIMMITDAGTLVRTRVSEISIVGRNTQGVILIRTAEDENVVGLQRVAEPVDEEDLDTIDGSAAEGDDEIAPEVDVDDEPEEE
SMILES,MIC (E. coli JL4) [µg/mL],MIC (E. coli LLM1) [µg/mL],MIC (S. aureus 2552) [µg/mL],MIC (S. aureus 2554) [µg/mL],MIC (S. aureus 2558) [µg/mL],MIC (S. aureus UC-76) [µg/mL],other results
"Cl.NC1CCN(c2c(F)cc3c(=O)n(N)c(=O)n(C4CC4)c3c2Cl)C1 (stereo not drawn) [Compound 10, 3-Amino-7-(3-aminopyrrolidin-1-yl)-8-chloro-1-cyclopropyl-6-fluoro-1H-quinazoline-2,4-dione hydrochloride]",–,–,–,–,–,–,PD50 (E. coli): 72 mg/kg
"NCC1CCN(c2c(F)cc3c(=O)n(N)c(=O)n(C4CC4)c3c2Cl)C1 (stereo not drawn) [Compound 1, 3-Amino-7-(3-aminomethylpyrrolidin-1-yl)-8-chloro-1-cyclopropyl-6-fluoro-1H-quinazoline-2,4-dione hydrochloride]",0.13,0.5,1,1,1,0.13,"MIC (E. coli B90; B90, read-out: Minimum Inhibitory Concentrations E. coli B90): 1 µg/mL; MIC (E. coli MC4100; MC4100, read-out: Minimum Inhibitory Concentrations E. coli MC4100): 2 µg/mL; MIC (E. coli Tol C): 0.25 µg/mL; MIC (E. faecalis RB1; RB1, read-out: Minimum Inhibitory Concentrations E. faecalis RB1): 1 µg/mL; MIC (S. aureus 29213; Staphylococcus aureus, 29213, read-out: Minimum Inhibitory Concentrations S. aureus 29213): 0.5 µg/mL; MIC (S. pyogenes C203; C203, read-out: Minimum Inhibitory Concentrations S. pyogenes C203): 0.13 µg/mL; IC50 (E. coli gyrase; supercoiling of relaxed pBR322, 30 minutes at 37° C., read-out: E. coli gyrase IC50): 1000 nM; PD50 (S. pyogenes): 12 mg/kg"
"N[C@@H]1[C@H]2CN(c3cc4c(cc3F)c(=O)n(O)c(=O)n4C3CC3)C[C@@H]12 [drawing 287, reference compound]",0.25,4,32,32,> 64,4,–
"CC1(CN)CCN(c2c(F)cc3c(=O)n(N)c(=O)n(C4CC4)c3c2Cl)C1 (stereo not drawn) [Compound 3, 3-Amino-7-[3-(aminomethyl)-3-methylpyrrolidin-1-yl]-8-chloro-1-cyclopropyl-6-fluoro-1H-quinazoline-2,4-dione hydrochloride]",0.5,1,2,2,4,1,–
N[C@H]1CCN(c2cc3c(cc2F)c(=O)n(O)c(=O)n3C2CC2)C1 [reference compound],0.5,2,> 64,> 64,> 64,4,–
"Cl.Nn1c(=O)c2cc(F)c(N3CCC(CO)C3)c(Cl)c2n(C2CC2)c1=O (stereo not drawn) [Compound 12, 3-Amino-7-(3-hydroxymethylpyrrolidin-1-yl)-8-chloro-1-cyclopropyl-6-fluoro-1H-quinazoline-2,4-dione hydrochloride]",0.06,0.25,1,1,2,1,"MIC (E. coli B90; B90, Gram negative, read-out: Minimum Inhibitory Concentrations E. coli B90): 0.25 µg/mL; MIC (E. coli MC4100; MC4100, Gram negative, read-out: Minimum Inhibitory Concentrations E. coli MC4100): 16 µg/mL; MIC (E. coli Tol C): 0.13 µg/mL; MIC (E. faecalis RB1; RB1, Gram positive, read-out: Minimum Inhibitory Concentrations E. faecalis RB1): 4 µg/mL; MIC (S. aureus 29213; Staphylococcus aureus, 29213, Gram positive, read-out: Minimum Inhibitory Concentrations S. aureus 29213): 2 µg/mL; MIC (S. pyogenes C203; C203, Gram positive, read-out: Minimum Inhibitory Concentrations S. pyogenes C203): 8 µg/mL; IC50 (E. coli gyrase): 2100 nM; melting point: 78 to 80 °C"
"N[C@@H]1[C@H]2CN(c3cc4c(cc3F)c(=O)n(O)c(=O)n4C3CC3)C[C@@H]12 [drawing 286, reference compound]",–,–,–,–,–,–,PD50 (S. pyogenes): >100 mg/kg
